{"source": "patent US12516289B2", "about": "“Methods of producing T memory stem cell populations” (The United States of America, as represented by the …, priority 2012, dated 2026)", "tested_on": "CD45RO−CD62L+ naïve CD8+ T cells", "test": "Activation of naïve CD8+ T cells in the presence of the GSK-3β inhibitor, phenotypic analysis", "assay_type": "cell-based, human", "procedure": "Candidate human TSCM cells were generated by activating CD45RO^−CD62L^+ naïve CD8^+ T cells in the presence of the GSK-3β inhibitor TWS119. […] To determine whether the CD45RO^−CD62L^+ T cells generated in the presence of TWS119 were truly naïve cells or had acquired memory traits, phenotypic analysis was performed using established markers of T cell activation and differentiation (Appay et al., Cytometry A 73: 975-983 (2008))."}
{"smiles": "Nc1cccc(-c2cc3c(Oc4cccc(O)c4)ncnc3[nH]2)c1", "note": "[TWS119, 3-[[6-(3-aminophenyl)-7H-pyrrolo[2,3-d]pyrimidin-4-yl]oxy]phenol]", "values": [{"measurement": "phenotype of T cells after culture (CD45RO/CD62L)", "setting": "naïve CD8+ T cells activated in presence of TWS119, after 2 weeks", "result": "majority of T cells cultured with TWS119 retained a CD45RO^−CD62L^+ naïve-like phenotype"}, {"measurement": "expression of CD95 and IL-2Rβ by TWS119-generated naïve-like T cells", "setting": "phenotypic analysis, compared with TN and memory T cells", "result": "expressed levels of CD95 and IL-2Rβ similar to those observed in memory T cells"}]}
